# According to patent US20060094682A1, “Kinase inhibitors for the treatment of diabetes and obesity” (Odyssey Thera, Inc., priority 2004, published 2006):
# Experiments:
# Hck = Hck (Homo sapiens, UniProt P08631); conditions: cited from earlier work
# human T cells = conditions: read-out: IC50 anti-CD3-stimulated tyrosine phosphorylation of human T cells; cited from earlier work
# [1] = tested on: PPAR-[Gamma]:SRC-1 complexes; assay: PPAR-[Gamma]:SRC-1 fluorescence protein-fragment complementation assay (PCA), drug treatment; format: cell-based, human; conditions: HEK293 cells; for effect on PPAR-[Gamma]:SRC-1 complex: 10 micromolar PP3 or 1 micromolar PD 153035 for 6.5 hours prior to rosiglitazone for 1.5 hours
# Excerpt: Reporter fragments for PCA were generated by oligonucleotide synthesis (Blue Heron Biotechnology, Bothell, Wash.). First, oligonucleotides coding for polypeptide fragments YFP[1]and YFP[2] […] Next, PCR mutagenesis was used to generate the mutant fragments IFP[1] and IFP[2]. […] The YFP[1], YFP[2], IFP[1] and IFP[2] fragments were amplified by PCR to incorporate restriction sites and a linker sequence, described below, in configurations that would allow fusion of a gene of interest to either the 5′- or 3′-end of each reporter fragment. […] Additionally, these vectors still retain the SV40 origin, allowing for episomal expression in cell lines expressing the SV40 large T antigen (e.g. HEK293T, Jurkat or COS).
# Recombinants in the host strains DH5-alpha (Invitrogen, Carlsbad, Calif.) or XL1 Blue MR (Stratagene, La Jolla, Calif.) were screened by colony PCR, and clones containing inserts of the correct size were subjected to end sequencing to confirm the presence of the gene of interest and in-frame fusion to the appropriate reporter fragment. A subset of fusion constructs were selected for full-insert sequencing by primer walking. DNAs were isolated using Qiagen MaxiPrep kits (Qiagen, Chatsworth, Calif.). PCR was used to assess the integrity of each fusion construct, by combining the appropriate gene-specific primer with a reporter-specific primer to confirm that the correct gene-fusion was present and of the correct size with no internal deletions.
# HEK293 cells were maintained in MEM alpha medium (Invitrogen) supplemented with 10% FBS (Gemini Bio-Products), 1% penicillin, and 1% streptomycin, and grown in a 37° C. incubator equilibrated to 5% CO2.
# Src family kinases = conditions: cited from earlier work
# Sequence of Hck (P08631 whole entry, species assumed): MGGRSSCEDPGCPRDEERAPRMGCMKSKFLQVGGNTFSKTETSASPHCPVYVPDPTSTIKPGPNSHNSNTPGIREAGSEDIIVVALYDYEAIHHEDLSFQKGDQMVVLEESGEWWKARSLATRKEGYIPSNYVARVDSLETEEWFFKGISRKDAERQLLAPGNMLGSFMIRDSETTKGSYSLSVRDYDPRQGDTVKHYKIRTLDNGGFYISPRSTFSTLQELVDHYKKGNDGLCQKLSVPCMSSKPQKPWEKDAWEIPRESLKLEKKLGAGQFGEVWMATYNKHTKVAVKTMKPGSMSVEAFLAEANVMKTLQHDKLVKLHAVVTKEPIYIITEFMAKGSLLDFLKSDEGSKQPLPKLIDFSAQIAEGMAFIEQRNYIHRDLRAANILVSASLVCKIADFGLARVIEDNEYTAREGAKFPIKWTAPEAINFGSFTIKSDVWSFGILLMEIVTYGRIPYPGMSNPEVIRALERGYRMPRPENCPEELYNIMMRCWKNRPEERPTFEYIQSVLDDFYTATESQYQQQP
compound,measurement,setting,value
"4-amino-5-(4-chlorophenyl)-7-(t-butyl)pyrazolo[3,4-d]pyrimidine [PP2]",IC50,Hck,0.005 µM
same,IC50,human T cells,0.6 µM
"COc1cc2ncnc(Nc3cccc(Br)c3)c2cc1OC [PD153035, 4-[(3-Bromophenyl)amino]-6,7-dimethoxyquinazoline]",effect on PPAR-[Gamma]:SRC-1 complex,[1],no effect
"Nc1ncnc2c1cnn2-c1ccccc1 [PP3, 4-Amino-7-phenylpyrazol[3,4-d]pyrimidine]",effect on PPAR-[Gamma]:SRC-1 complex,[1],no effect
same,activity against Src family kinases,Src family kinases,inactive
CN(CCOc1ccc(CC2SC(=O)NC2=O)cc1)c1ccccn1 (stereo not drawn) [rosiglitazone],increase of fluorescence intensity of the PPAR-[Gamma]:SRC-1 PCA,[1]; 15 micromolar rosiglitazone for 90 minutes vs unstimulated,6 fold
